Measurements as given in patent US4621077A, “Pharmacologically active biphosphonates, process for the preparation thereof and pharmaceutical compositions therefrom” (Istituto Gentili S.p.A., priority 1982, dated 1986).
“Also recorded” adds a separate entry of the source. Where two headings read alike, the source gives them in different places.

Assays:
in vivo = conditions: mouse, Swiss mice, read-out: DL50 (the source's name)
Protocol: For this study Swiss mice, both male and female, have been utilized: during the experiment, the animals are fed according to the method with Altromin in the form of tablets. For the oral and intraperitoneal administration, there are used 5% gum arabic solutions while saline solutions of pH 4 are used for the intravenous injections.
The preliminary values of DL50 are calculated according to a graphic method.

[1] = system: bone reabsorption (metaphyseal bone density); assay: Metaphyseal bone density / inhibition of bone reabsorption in rats treated for 7 days; assay type: in vivo; conditions: 7 days, rats
[2] = 37° C., two days, control 29, prior to incubation 114.7
Protocol: A model system is used to evaluate the ability of the phosphonates to inhibit the formation of crystals in inorganic solutions. Three solutions are prepared according to Fleisch.
The pH is brought to 7.4 by means of potassium hydroxide. The concentration of Ca^++ was 6.7 mg%, a level similar to the calcium in blood which has been subjected to untrafiltration and the concentration of the inorganic phosphate Pi give a product Ca^++ ×Pi=80. The solution was analyzed for Ca^++ and Pi and was distributed in Erlenmeyer flasks 12 cc each. The flasks were divided in groups as follows:
and then they are incubated under stirring at 37° C. for two days.
At the end of incubation, the solutions are passed through "millipore filters" for the purpose of retaining the ctystals which are formed during the incubation; the filtrate then is analyzed for Ca^++ and Pi. The results are also reported in Table 2 as the product of Ca^++ x Pi in the solution at the end of the experiment.

[3] = system: skull cells (lactate production); assay: cells; assay type: cell-based, Wistar rats
Protocol: (§1) Cellular culture: the cells are cultured according to the method described by Fast et al, (Biochem. J. 172, 97-107 (1978)). By way of summary, the skulls removed from Wistar rats, one day old, are digested with collagenase. The cells set free are placed on a plate with concentration of 200,000 cells per cc of medium in disks "clusters" suitable for culture, the plates having 24 wells of 1.6 cm in diameter containing 0.5 cc of medium. The cells are cultivated in the essential minimum medium containing 10% of foetal calf serum in an atmosphere of 5% CO2 at 37° up to the eighth day. The bisphosphonates are added on the first day up to the end of the experiment. The medium is changed on the first, fourth and seventh day.
On the seventh day, the medium is changed and the cells are incubated for 16 hours. The lactate produced during this period is measured in an extract in HClO4 of the medium using lactatodehydrogenase.

[4] = system: bone reabsorption and mineralization (tibia, trabecular metaphysis); assay type: in vivo, Wistar rats; conditions: for effect on bone reabsorption, in words: rat, in vivo
Protocol: Groups of five Wistar rats of weight 180-200 grams are treated for a period of seven days with 0.1, 1.0 and 10 mg of P/kg of the following biphosphonic acids:
The animals kept as a control were administered the solvent with NaCl. All the treatments were carried out by the subcutaneous route. […] The animals were fed with Altromine 1314 containing 1.1 g/100 g P and 250 IU/100 g of vitamin D3. On the eighth day, the animals were killed and the tibia was removed and fixed in 50% ethanol. The tibiae were then dehydrated in increasing concentration of ethanol and allowed to soak in methylmethacrylate after the addition of Plastoid N. Frontal sections were removed and cut to a thickness of 70-80 μm and then the sections were submitted to microradiography. This procedure permitted to evaluate the density of the mineral in the trabecular metaphysis according to the method of Shenk et al., Calc. Tiss. Res. 11, 196-214, 1973).
One animal per group has been evaluated.

injection sites / skin = assay: Necrosis at the injection sites in rats (local skin toxicity)
From the text: The symbol "x" represents a conventional score, that is "x" meand slight necrosis, "xx" means severe necrosis, "xxx" means very severe necrosis.

skull cells = assay: cells; assay type: cell-based, Wistar rats
Protocol: as §1
The cells are counted with a Coulter counter after they have been set free from the disks by digestion with a mixture of collagenase and trypsin.

[5] = 0.01 mg P/kg s.c., s.c. NaCl controls 29.72
[6] = 0.1 mg P/kg s.c., s.c. NaCl controls 29.72
[7] = 1.0 mg P/kg s.c., s.c. NaCl controls 29.72
[8] = 2.0 mg P/kg p.o., p.o. NaCl controls 28.45
[9] = Rattus norvegicus, 16 h, read-out: Effect on the production of lactate ± S.E.M.
[10] = Rattus norvegicus, read-out: Effect on the cellular number ± S.E.M.

Work on NCCCCCC(O)(P(=O)(O)O)P(=O)(O)O [AHEX BP, 6-amino-1-hydroxyhexane-1,1-biphosphonic acid] yielded an LD50 (in vivo; ip) of 125 mg/kg, an LD50 (in vivo; iv) of 75 mg/kg and an LD50 (in vivo; po, os) of over 2000 mg/kg. For the same molecule, the metaphysical density [1, 5] was 38.12 % volume of calcified tissue, the metaphysical density [1, 6] was 46.96 % volume of calcified tissue and the metaphysical density [1, 7] was 54.93 % volume of calcified tissue. For the same molecule, the metaphysical density [1, 8] was 34.69 % volume of calcified tissue, the “product Ca++ × Pi in solution after incubation” value (from here on “product Ca++ × Pi in solution”) ([2]; 0.05 μM) was 30.0 and the “product Ca++ × Pi in solution” value ([2]; 0.25 μM) was 37.5. The “product Ca++ × Pi in solution” value ([2]; 0.5 μM) was 59.6, the “product Ca++ × Pi in solution” value ([2]; 2.5 μM) was 92.6 and the “product Ca++ × Pi in solution” value ([2]; 5.0 μM) was 95.3. It also gave an activity at 2.5 µM [3, 9] of 109 ± 6%, an activity at 25 µM [3, 9] of 108 ± 4.5% and an activity at 250 µM ([3]; Rattus norvegicus, 16 h, 250 μM, read-out: Effect on the production of lactate ± S.E.M.) of 165 ± 7.7%. For the same molecule, the “effect on mineralization, in words” value ([4]; 10 mg of P/kg / high dosage where stated) was “strong inhibition of mineralization; also recorded: exhibits high inhibition”, the “effect on bone reabsorption, in words” value [4] was “active on the reabsorption with a result slightly superior to Cl2 MBP” and the “necrosis at the injection sites” value (injection sites / skin; 0.01 mg P/kg, 1 day) was “.0”. For the same molecule, the “necrosis at the injection sites” value (injection sites / skin; 0.01 mg P/kg, 2 day) was “.0”, the “necrosis at the injection sites” value (injection sites / skin; 0.01 mg P/kg, 3 day) was “.0” and the “necrosis at the injection sites” value (injection sites / skin; 0.01 mg P/kg, 4 day) was “.0”. The “necrosis at the injection sites” value (injection sites / skin; 0.01 mg P/kg, 5 day) was “.0”, the “necrosis at the injection sites” value (injection sites / skin; 0.01 mg P/kg, 6 day) was “.0” and the “necrosis at the injection sites” value (injection sites / skin; 0.01 mg P/kg, 7 day) was “.0”. The “necrosis at the injection sites” value (injection sites / skin; 0.1 mg P/kg, 1 day) was “.0”, the “necrosis at the injection sites” value (injection sites / skin; 0.1 mg P/kg, 2 day) was “.0” and the “necrosis at the injection sites” value (injection sites / skin; 0.1 mg P/kg, 3 day) was “.0”. For the same molecule, the “necrosis at the injection sites” value (injection sites / skin; 0.1 mg P/kg, 4 day) was “.0”, the “necrosis at the injection sites” value (injection sites / skin; 0.1 mg P/kg, 5 day) was “.0” and the “necrosis at the injection sites” value (injection sites / skin; 0.1 mg P/kg, 6 day) was “.0”. The “necrosis at the injection sites” value (injection sites / skin; 0.1 mg P/kg, 7 day) was “.0”, the “necrosis at the injection sites” value (injection sites / skin; 1 mg P/kg, 1 day) was “.0” and the “necrosis at the injection sites” value (injection sites / skin; 1 mg P/kg, 2 day) was “.0”. For the same molecule, the “necrosis at the injection sites” value (injection sites / skin; 1 mg P/kg, 3 day) was “.0”, the “necrosis at the injection sites” value (injection sites / skin; 1 mg P/kg, 4 day) was “.0” and the “necrosis at the injection sites” value (injection sites / skin; 1 mg P/kg, 5 day) was “.0”. For the same molecule, the “necrosis at the injection sites” value (injection sites / skin; 1 mg P/kg, 6 day) was “.0”, the “necrosis at the injection sites” value (injection sites / skin; 1 mg P/kg, 7 day) was “.0” and the “necrosis at the injection sites” value (injection sites / skin; 10 mg P/kg, 1 day) was “.0”. For the same molecule, the “necrosis at the injection sites” value (injection sites / skin; 10 mg P/kg, 2 day) was “.0”, the “necrosis at the injection sites” value (injection sites / skin; 10 mg P/kg, 5 day) was “xxx” and the “necrosis at the injection sites” value (injection sites / skin; 10 mg P/kg, 6 day) was “xxx”. For the same molecule, the “necrosis at the injection sites” value (injection sites / skin; 10 mg P/kg, 7 day) was “xxx”, the death of animals (injection sites / skin; 10 mg P/kg, 8 day) was “animals died spontaneously” and the activity at 2.5 µM (skull cells; [10]) was 93.3 ± 3%. For the same molecule, the activity at 25 µM (skull cells; [10]) was 95.2 ± 2.2% and the activity at 250 µM (skull cells; Rattus norvegicus, 250 μM, read-out: Effect on the cellular number ± S.E.M.) was 87 ± 3.4%.

In the case of NCCCCC(O)(P(=O)(O)O)P(=O)(O)O [AHPE BP, 5-amino-1-hydroxypentan-1,1-biphosphonic acid], the LD50 (in vivo; ip) is reported as 75 mg/kg, the LD50 (in vivo; iv) is reported as 85 mg/kg and the LD50 (in vivo; po, os) is reported as 1500 mg/kg. For the same molecule, the metaphysical density [1, 5] was 37.85 % volume of calcified tissue, the metaphysical density [1, 6] was 50.44 % volume of calcified tissue and the metaphysical density [1, 7] was 56.47 % volume of calcified tissue. The metaphysical density [1, 8] was 38.70 % volume of calcified tissue, the “product Ca++ × Pi in solution” value ([2]; 0.05 μM) was 36.7 and the “product Ca++ × Pi in solution” value ([2]; 0.25 μM) was 37.1. The “product Ca++ × Pi in solution” value ([2]; 0.5 μM) was 68.6, the “product Ca++ × Pi in solution” value ([2]; 2.5 μM) was 94.0 and the “product Ca++ × Pi in solution” value ([2]; 5.0 μM) was 97.5. For the same molecule, the “Effect on the production of lactate ± S.E.M.” value ([3]; 250 μM) was “dead cells”, the activity at 2.5 µM [3, 9] was 93.4 ± 3% and the activity at 25 µM [3, 9] was 354 ± 27.7%. For the same molecule, the “effect on bone reabsorption, in words” value [4] was “the most active in inhibiting the bone reabsorption”, the “toxicity during the bone reabsorption experiment” value ([4]; s.c., 10 mg of P/kg / higher dosage) was “Experiment interrupted due to acute toxicity; also recorded: a toxicity at the higher dosage” and the “necrosis at the injection sites” value (injection sites / skin; 0.01 mg P/kg, 1 day) was “.0”. The “necrosis at the injection sites” value (injection sites / skin; 0.01 mg P/kg, 2 day) was “.0”, the “necrosis at the injection sites” value (injection sites / skin; 0.01 mg P/kg, 3 day) was “.0” and the “necrosis at the injection sites” value (injection sites / skin; 0.01 mg P/kg, 4 day) was “.0”. For the same molecule, the “necrosis at the injection sites” value (injection sites / skin; 0.01 mg P/kg, 5 day) was “.0”, the “necrosis at the injection sites” value (injection sites / skin; 0.01 mg P/kg, 6 day) was “.0” and the “necrosis at the injection sites” value (injection sites / skin; 0.01 mg P/kg, 7 day) was “.0”. For the same molecule, the “necrosis at the injection sites” value (injection sites / skin; 0.1 mg P/kg, 1 day) was “.0”, the “necrosis at the injection sites” value (injection sites / skin; 0.1 mg P/kg, 2 day) was “.0” and the “necrosis at the injection sites” value (injection sites / skin; 0.1 mg P/kg, 3 day) was “.0”. For the same molecule, the “necrosis at the injection sites” value (injection sites / skin; 0.1 mg P/kg, 4 day) was “.0”, the “necrosis at the injection sites” value (injection sites / skin; 0.1 mg P/kg, 5 day) was “.0” and the “necrosis at the injection sites” value (injection sites / skin; 0.1 mg P/kg, 6 day) was “.0”. The “necrosis at the injection sites” value (injection sites / skin; 0.1 mg P/kg, 7 day) was “.0”, the “necrosis at the injection sites” value (injection sites / skin; 1 mg P/kg, 1 day) was “.0” and the “necrosis at the injection sites” value (injection sites / skin; 1 mg P/kg, 2 day) was “.0”. For the same molecule, the “necrosis at the injection sites” value (injection sites / skin; 1 mg P/kg, 3 day) was “.0”, the “necrosis at the injection sites” value (injection sites / skin; 1 mg P/kg, 4 day) was “.0” and the “necrosis at the injection sites” value (injection sites / skin; 1 mg P/kg, 5 day) was “.0”. For the same molecule, the “necrosis at the injection sites” value (injection sites / skin; 1 mg P/kg, 6 day) was “.0”, the “necrosis at the injection sites” value (injection sites / skin; 1 mg P/kg, 7 day) was “.0” and the “necrosis at the injection sites” value (injection sites / skin; 10 mg P/kg, 1 day) was “xxx”. For the same molecule, the “necrosis at the injection sites” value (injection sites / skin; 10 mg P/kg, 2 day) was “xxx”, the “Effect on the cellular number ± S.E.M.” value (skull cells; 250 μM) was “dead cells” and the activity at 2.5 µM (skull cells; [10]) was 103 ± 2.8%. It also gave an activity at 25 µM (skull cells; [10]) of 42.6 ± 5.1%.
